From PMC9736855, “Discovery of 3-Amino-1H-pyrazole-Based Kinase Inhibitors to Illuminate the Understudied PCTAIRE Family” (International Journal of Molecular Sciences, 2022)

What was measured:
Assay in all cases: DSF
Assay type in all cases: binding
[1] = molecular target: T1, ABL1 (Homo sapiens, UniProt P00519)
T1 construct: purchased in-house DSF panel (SGC Frankfurt)
T1 sequence (P00519 229-500): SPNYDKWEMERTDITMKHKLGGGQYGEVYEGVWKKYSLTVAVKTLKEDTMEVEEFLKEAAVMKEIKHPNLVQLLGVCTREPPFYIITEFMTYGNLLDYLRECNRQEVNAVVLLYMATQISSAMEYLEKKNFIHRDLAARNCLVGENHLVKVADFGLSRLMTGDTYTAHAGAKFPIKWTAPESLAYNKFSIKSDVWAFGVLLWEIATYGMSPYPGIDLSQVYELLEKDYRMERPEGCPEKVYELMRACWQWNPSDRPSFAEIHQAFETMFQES
Experimental: (§1) Recombinant protein kinase domains with a concentration of 2 μM were mixed with a 10 μM compound solution in DMSO, 20 mM HEPES, pH 7.5, and 500 mM NaCl. SYPRO Orange (5000×, Invitrogen) was added as a fluorescence probe (1 µl per mL). Subsequently, temperature-dependent protein unfolding profiles were measured, using the QuantStudio™ 5 realtime PCR machine (Thermo Fisher, Waltham, MA, USA). […] The temperature was raised with a step rate of 3 °C per minute. Data points were analyzed with the internal software (Thermal Shift SoftwareTM Version 1.4, Thermo Fisher) using the Boltzmann equation to determine the inflection point of the transition curve. Differences in melting temperature are given as ΔTm values in °C. Measurements were performed in duplicates.

[2] = molecular target: T2, BMX (Homo sapiens, UniProt P51813)
T2 construct: purchased in-house DSF panel (SGC Frankfurt)
Experimental: as §1

[3] = molecular target: T3, CAMK1D (Homo sapiens, UniProt Q8IU85)
T3 construct: purchased in-house DSF panel (SGC Frankfurt)
Experimental: as §1

[4] = molecular target: T4, CASK (Homo sapiens, UniProt O14936)
T4 construct: purchased in-house DSF panel (SGC Frankfurt)
T4 sequence (O14936 1-337): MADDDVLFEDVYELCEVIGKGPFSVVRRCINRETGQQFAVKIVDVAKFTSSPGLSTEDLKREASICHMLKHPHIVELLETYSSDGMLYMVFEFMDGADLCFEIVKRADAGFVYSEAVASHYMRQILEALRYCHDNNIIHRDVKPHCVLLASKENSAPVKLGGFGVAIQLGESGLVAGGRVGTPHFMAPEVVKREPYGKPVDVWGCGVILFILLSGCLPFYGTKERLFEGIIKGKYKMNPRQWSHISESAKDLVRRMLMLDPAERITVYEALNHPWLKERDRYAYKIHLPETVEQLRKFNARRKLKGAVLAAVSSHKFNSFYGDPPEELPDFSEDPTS
Experimental: as §1

[5] = molecular target: T5, CDKL1 (Homo sapiens, UniProt Q00532)
T5 construct: purchased in-house DSF panel (SGC Frankfurt)
Experimental: as §1

[6] = molecular target: T6, CHEK2 (Homo sapiens, UniProt O96017)
T6 construct: purchased in-house DSF panel (SGC Frankfurt)
Experimental: as §1

[7] = molecular target: T7, FES (Homo sapiens, UniProt P07332)
T7 construct: purchased in-house DSF panel (SGC Frankfurt)
Experimental: as §1

[8] = molecular target: T8, FGFR1 (Homo sapiens, UniProt P11362)
T8 construct: purchased in-house DSF panel (SGC Frankfurt)
Experimental: as §1

[9] = molecular target: T9, MAPK1 (Homo sapiens, UniProt P28482)
T9 construct: purchased in-house DSF panel (SGC Frankfurt)
Experimental: as §1

[10] = molecular target: T10, PAK4 (Homo sapiens, UniProt O96013)
T10 construct: purchased in-house DSF panel (SGC Frankfurt)
Experimental: as §1

[11] = molecular target: T11, PDK4 (Homo sapiens, UniProt Q16654)
T11 construct: purchased in-house DSF panel (SGC Frankfurt)
Experimental: as §1

[12] = molecular target: T12, PHKG2 (Homo sapiens, UniProt P15735)
T12 construct: purchased in-house DSF panel (SGC Frankfurt)
T12 sequence (P15735 6-293): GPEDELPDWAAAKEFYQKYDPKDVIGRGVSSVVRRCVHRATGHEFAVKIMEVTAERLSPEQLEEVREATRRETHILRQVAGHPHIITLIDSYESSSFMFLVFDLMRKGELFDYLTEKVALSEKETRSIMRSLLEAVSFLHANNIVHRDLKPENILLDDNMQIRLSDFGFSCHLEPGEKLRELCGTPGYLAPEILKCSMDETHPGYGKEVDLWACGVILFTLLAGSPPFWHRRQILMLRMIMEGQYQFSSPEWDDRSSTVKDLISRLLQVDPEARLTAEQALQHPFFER
Experimental: as §1

[13] = molecular target: T13, PKMYT1 (Homo sapiens, UniProt Q99640)
T13 construct: purchased in-house DSF panel (SGC Frankfurt)
T13 sequence (Q99640 75-362): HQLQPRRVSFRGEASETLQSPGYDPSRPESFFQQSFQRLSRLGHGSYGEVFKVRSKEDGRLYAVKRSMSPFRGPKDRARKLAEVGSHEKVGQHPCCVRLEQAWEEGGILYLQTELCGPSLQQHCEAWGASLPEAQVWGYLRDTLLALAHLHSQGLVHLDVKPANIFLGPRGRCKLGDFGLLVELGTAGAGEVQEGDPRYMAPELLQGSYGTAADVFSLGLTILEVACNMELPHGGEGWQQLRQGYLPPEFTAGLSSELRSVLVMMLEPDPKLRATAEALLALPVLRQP
Experimental: as §1

[14] = molecular target: T14, RIOK1 (Homo sapiens, UniProt Q9BRS2)
T14 construct: purchased in-house DSF panel (SGC Frankfurt)
T14 sequence (Q9BRS2 143-494): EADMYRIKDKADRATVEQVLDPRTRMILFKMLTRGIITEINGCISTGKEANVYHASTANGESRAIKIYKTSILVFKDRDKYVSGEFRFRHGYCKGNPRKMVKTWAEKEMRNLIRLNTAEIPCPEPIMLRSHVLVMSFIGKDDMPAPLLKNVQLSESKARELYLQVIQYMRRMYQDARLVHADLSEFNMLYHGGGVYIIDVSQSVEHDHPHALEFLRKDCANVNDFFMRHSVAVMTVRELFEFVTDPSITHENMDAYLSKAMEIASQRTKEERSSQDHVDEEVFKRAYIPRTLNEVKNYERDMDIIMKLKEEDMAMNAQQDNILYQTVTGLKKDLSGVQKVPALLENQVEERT
Experimental: as §1

[15] = molecular target: T15, VRK1 (Homo sapiens, UniProt Q99986)
T15 construct: purchased in-house DSF panel (SGC Frankfurt)
T15 sequence (Q99986 1-396): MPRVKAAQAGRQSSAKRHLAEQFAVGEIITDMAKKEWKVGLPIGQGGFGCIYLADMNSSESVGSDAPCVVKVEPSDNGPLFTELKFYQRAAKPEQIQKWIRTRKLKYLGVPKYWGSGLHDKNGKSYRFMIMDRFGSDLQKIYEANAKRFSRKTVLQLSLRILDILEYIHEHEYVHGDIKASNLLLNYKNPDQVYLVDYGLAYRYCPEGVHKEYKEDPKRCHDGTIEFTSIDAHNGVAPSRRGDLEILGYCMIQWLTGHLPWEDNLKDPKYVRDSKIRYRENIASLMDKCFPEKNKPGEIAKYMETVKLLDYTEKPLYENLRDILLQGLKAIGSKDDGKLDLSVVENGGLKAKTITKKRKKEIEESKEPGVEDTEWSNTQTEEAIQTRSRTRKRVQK
Experimental: as §1

T3 sequence (Q8IU85 23-279): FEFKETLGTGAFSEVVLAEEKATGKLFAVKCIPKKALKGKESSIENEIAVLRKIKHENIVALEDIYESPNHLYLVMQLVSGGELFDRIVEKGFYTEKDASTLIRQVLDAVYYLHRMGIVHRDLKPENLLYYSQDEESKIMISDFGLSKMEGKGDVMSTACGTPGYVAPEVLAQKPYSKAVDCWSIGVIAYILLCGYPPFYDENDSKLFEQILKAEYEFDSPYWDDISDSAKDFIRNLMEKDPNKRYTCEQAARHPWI
T11 sequence (Q16654 whole entry): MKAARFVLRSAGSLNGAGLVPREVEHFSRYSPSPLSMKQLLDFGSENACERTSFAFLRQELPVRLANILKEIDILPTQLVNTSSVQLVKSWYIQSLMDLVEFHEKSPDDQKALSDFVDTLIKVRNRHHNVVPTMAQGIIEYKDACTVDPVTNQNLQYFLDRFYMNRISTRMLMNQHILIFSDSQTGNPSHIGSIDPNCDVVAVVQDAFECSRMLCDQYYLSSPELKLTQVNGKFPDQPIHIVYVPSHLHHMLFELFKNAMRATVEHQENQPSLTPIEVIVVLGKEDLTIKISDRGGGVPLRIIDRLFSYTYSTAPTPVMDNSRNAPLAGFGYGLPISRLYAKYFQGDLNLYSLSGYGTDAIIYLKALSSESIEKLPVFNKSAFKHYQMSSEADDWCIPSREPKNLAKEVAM
T2 sequence (P51813 411-675): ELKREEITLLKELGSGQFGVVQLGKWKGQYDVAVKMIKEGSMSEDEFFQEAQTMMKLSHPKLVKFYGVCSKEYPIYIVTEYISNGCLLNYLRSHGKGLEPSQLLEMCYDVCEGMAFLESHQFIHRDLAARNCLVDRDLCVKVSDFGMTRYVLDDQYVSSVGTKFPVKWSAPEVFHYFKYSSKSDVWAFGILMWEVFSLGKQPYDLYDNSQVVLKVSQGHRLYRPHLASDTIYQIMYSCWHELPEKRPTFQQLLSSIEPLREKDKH
T9 sequence (P28482 whole entry): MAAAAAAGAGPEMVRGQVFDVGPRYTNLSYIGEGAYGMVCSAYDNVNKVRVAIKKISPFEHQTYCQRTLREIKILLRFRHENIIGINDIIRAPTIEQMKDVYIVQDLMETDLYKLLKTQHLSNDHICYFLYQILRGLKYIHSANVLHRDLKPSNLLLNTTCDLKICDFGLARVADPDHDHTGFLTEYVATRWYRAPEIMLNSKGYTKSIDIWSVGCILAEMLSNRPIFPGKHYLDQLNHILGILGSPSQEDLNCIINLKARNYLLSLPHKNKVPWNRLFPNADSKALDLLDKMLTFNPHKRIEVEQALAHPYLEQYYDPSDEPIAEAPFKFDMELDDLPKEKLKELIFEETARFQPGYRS
T6 sequence (O96017 210-531): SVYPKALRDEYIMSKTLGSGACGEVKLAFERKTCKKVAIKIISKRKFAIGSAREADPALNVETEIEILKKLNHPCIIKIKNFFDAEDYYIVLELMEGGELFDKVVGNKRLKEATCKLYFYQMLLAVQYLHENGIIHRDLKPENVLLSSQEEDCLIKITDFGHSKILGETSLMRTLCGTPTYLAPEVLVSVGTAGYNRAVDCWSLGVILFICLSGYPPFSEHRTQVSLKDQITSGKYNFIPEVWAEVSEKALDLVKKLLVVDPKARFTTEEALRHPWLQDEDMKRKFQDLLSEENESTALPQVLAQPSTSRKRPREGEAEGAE
T10 sequence (O96013 291-591): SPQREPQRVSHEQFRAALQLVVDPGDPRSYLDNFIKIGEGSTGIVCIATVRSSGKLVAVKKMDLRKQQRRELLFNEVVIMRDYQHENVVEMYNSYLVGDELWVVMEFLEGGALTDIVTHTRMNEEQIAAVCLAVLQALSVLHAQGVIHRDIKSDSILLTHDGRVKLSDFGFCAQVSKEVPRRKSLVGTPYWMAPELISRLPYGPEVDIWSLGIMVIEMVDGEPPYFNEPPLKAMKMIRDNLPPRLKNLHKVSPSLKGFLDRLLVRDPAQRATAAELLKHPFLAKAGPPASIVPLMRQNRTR
T8 sequence (P11362 456-765): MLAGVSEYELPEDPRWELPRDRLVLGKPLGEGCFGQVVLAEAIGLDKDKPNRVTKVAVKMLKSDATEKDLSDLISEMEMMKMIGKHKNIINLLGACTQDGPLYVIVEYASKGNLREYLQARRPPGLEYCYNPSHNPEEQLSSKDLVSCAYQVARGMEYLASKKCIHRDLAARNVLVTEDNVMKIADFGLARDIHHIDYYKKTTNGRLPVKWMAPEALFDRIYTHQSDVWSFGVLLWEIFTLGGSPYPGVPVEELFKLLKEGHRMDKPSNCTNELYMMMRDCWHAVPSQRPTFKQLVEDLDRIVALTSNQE
T5 sequence (Q00532 1-303): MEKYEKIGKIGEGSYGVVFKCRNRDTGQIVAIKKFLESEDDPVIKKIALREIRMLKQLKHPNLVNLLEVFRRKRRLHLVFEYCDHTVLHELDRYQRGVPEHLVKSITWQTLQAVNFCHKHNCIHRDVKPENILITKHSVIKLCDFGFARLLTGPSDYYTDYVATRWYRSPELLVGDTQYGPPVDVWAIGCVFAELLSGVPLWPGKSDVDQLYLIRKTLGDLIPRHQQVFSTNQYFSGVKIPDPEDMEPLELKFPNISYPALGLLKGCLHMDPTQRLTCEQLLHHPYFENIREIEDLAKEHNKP
T7 sequence (P07332 whole entry): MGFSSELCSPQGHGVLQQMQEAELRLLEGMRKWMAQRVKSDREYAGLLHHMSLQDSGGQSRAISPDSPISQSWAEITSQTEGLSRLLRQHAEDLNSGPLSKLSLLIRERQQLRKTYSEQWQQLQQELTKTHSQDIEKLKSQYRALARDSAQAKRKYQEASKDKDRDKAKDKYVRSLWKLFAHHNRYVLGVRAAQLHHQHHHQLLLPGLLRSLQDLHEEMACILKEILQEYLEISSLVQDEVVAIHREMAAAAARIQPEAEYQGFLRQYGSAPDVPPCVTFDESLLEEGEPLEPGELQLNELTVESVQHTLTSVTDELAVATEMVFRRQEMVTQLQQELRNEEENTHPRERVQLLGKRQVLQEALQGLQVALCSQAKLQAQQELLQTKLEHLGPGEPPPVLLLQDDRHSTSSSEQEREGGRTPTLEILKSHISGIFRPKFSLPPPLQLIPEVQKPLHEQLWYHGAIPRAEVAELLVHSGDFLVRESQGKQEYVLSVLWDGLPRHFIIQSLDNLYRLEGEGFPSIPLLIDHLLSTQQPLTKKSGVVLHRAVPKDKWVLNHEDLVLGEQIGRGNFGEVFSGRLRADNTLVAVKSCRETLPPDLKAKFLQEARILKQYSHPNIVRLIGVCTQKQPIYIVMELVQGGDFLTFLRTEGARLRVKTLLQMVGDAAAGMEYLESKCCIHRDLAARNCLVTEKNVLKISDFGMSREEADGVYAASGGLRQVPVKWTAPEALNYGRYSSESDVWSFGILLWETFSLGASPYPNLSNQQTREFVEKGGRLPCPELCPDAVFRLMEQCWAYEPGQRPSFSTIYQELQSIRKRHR

Structure (SMILES) | ΔTm ABL1 [1] | ΔTm BMX [2] | ΔTm CAMK1D [3] | ΔTm CASK [4] | ΔTm CDKL1 [5] | ΔTm CHEK2 [6] | ΔTm FES [7] | ΔTm FGFR1 [8] | ΔTm MAPK1 [9] | ΔTm PAK4 [10] | ΔTm PDK4 [11] | ΔTm PHKG2 [12] | ΔTm PKMYT1 [13] | ΔTm RIOK1 [14] | ΔTm VRK1 [15]
COC(=O)c1cc(Nc2ccnc(NCCOCCNC(=O)OC(C)(C)C)n2)[nH]n1 [21d, methyl 5-((2-((2-(2-((tert-butoxycarbonyl)amino)ethoxy)ethyl)amino)pyrimidin-4-yl)amino)-1H-pyrazole-3-carboxylate] | 1.2 °C | 0.2 °C | 1.4 °C | 0.4 °C | 0.1 °C | 2.5 °C | 1.5 °C | 0.5 °C | 0.3 °C | 1.0 °C | 1.8 °C | 0.5 °C | 1.0 °C | 0.1 °C | 1.0 °C
N#CCc1ccc(Nc2nccc(Nc3cc(C4CC4)[nH]n3)n2)cc1 [compound 1, reference compound] | 8.7 °C | 4.4 °C | 5.4 °C | 2.0 °C | 6.8 °C | 8.6 °C | 4.5 °C | 4.5 °C | 8.5 °C | 7.7 °C | 1.2 °C | 8.8 °C | 1.0 °C | 4.9 °C | 5.9 °C
CC(C)(C)OC(=O)Nc1ccc(CNc2nccc(Nc3cc(C(=O)OC(C)(C)C)[nH]n3)n2)cc1 [43d, tert-butyl 3-((2-((4-((tert-butoxycarbonyl)amino)benzyl)amino)pyrimidin-4-yl)amino)-1H-pyrazole-5-carboxylate] | 1.6 °C | -0.4 °C | -2.9 °C | 0.4 °C | 2.1 °C | 1.3 °C | 1.1 °C | 0.6 °C | 0.0 °C | -0.9 °C | – | 0.5 °C | -2.0 °C | – | 0.9 °C
COC(=O)c1cc(Nc2ccnc(NCc3ccc(NC(=O)OC(C)(C)C)cc3)n2)[nH]n1 [21i, methyl 5-((2-((4-((tert-butoxycarbonyl)amino)benzyl)amino)pyrimidin-4-yl)amino)-1H-pyrazole-3-carboxylate] | 0.7 °C | -0.1 °C | -0.5 °C | 0.2 °C | 0.5 °C | 0.6 °C | 0.0 °C | 0.0 °C | 0.7 °C | 0.2 °C | 0.9 °C | -0.3 °C | 0.2 °C | 0.8 °C | 1.1 °C
CC(C)OC(=O)c1cc(Nc2ccnc(NCc3ccc(NC(=O)OC(C)(C)C)cc3)n2)n[nH]1 [42d, isopropyl 3-((2-((4-((tert-butoxycarbonyl)amino)benzyl)amino)pyrimidin-4-yl)amino)-1H-pyrazole-5-carboxylate] | 1.0 °C | -0.1 °C | -2.4 °C | 0.4 °C | 1.7 °C | 0.6 °C | 0.1 °C | 0.4 °C | -0.1 °C | -0.2 °C | – | -0.2 °C | -3.2 °C | – | 0.5 °C
